Assay results from patent US20160120886A1, “PREVENTION, TREATMENT, AND AMELIORATION OF RADIATION INDUCED ENTERITIS” (priority 2004, published 2016).

Experiments:
[1] = cited from earlier work
[2] = cited from earlier work; remark: listed apart in the source
radiation enteritis [3] = assay: Clinical trial of balsalazide to treat radiation enteritis; assay type: in vivo, human; conditions: patients on pelvic radiotherapy
Experimental: Subjects included patients treated for FIGO stage IB2-IVA cervical cancer, AJCC Stage T1-3 MO prostate cancer, or biochemical failure after prostatectomy. Radiotherapy was delivered to the subjects in a 4-field technique to at least 40 Gy, and tumor dose was at least 64 Gy for prostate patients, and 75 Gy for cervical patients. Brachytherapy boost was permitted. Patients were given 2250 mg of BSZ or an Identical-appearing placebo twice daily beginning 5 days prior to radiotherapy, and continuing for 2 weeks after completion. Toxicities were graded weekly according to NCI Common Toxicity Criteria, for each of the following: proctitis, diarrhea, dysuria, weight loss, fatigue, nausea, and vomiting. A symptom index was formulated for each toxicity consisting of the toxicity's numeric grade multiplied by the number of days it was experienced, and summed for each grade. Thus, a patient with 7 days of grade 1 proctitis, 14 days of grade 2 proctitis, and 7 days of grade 3 proctitis [(1*7)+(2*14)+(3*7)] would have a proctitis index of 56. A higher Index indicates worse toxicity. Patients were randomized by sealed envelope decision, with only the protocol coordinator aware of the results of randomization. After randomization, the study drug or identical-appearing placebo was given to the study subject with instructions concerning dosage and administration schedule. As stated above, the toxicity was assessed weekly during the course of radiation treatment, then for a period of at least six months after completion of radiotherapy. National Cancer Institute (NCI) common toxicity criteria were used to grade the severity of radiation-induced acute bowel toxicity. Diarrhea was used as the primary endpoint and was assessed as follows: Grade 0—no diarrhea or increased stool frequency Grade 1—increase of 2-3 stools/day Grade 2—increase of 4-6 stools/day or nocturnal stool Grade 3—increase of 7-9 stools/day or incontinence Grade 4—increase of >10 stools/day or grossly bloody diarrhea Documented baseline hemorrhoidal bleeding was not considered grade 4. A secondary endpoint included proctitis, which was assessed using guidelines outlined by the NCI Common Toxicity Criteria, including: Grade 0—None Grade 1—Increased stool frequency, occasional blood-streaked stools or rectal discomfort, not requiring medication Grade 2—increased stool frequency, bleeding, mucous discharge or rectal discomfort requiring medication Grade 3—increased stool frequency/diarrhea requiring parenteral support, rectal bleeding requiring transfusion, or persistent mucus discharge necessitating the use of pads Grade 4—perforation, bleeding or necrosis, or other life-threatening complications requiring surgical intervention

radiation enteritis [4] = conditions: related 5-ASA drugs; cited from earlier work
[5] = 2250 mg twice daily, versus placebo

Structure (SMILES): O=C(O)CCNC(=O)c1ccc(/N=N/c2ccc(O)c(C(=O)O)c2)cc1 [balsalazide disodium]
- abdominal pain (only statistically significant side effect), patients receiving the drug ([1]; versus 0% in those receiving placebo): 11%
- water solubility [2]: highly water-soluble

Structure (SMILES): O=C(O)CCNC(=O)c1ccc(/N=N/c2ccc(O)c(C(=O)O)c2)cc1 [balsalazide]
- adverse events reported in trials (headache, nausea, diarrhea, flatulence, fatigue) ([1]; versus placebo): comparable to those seen in patients receiving placebo
- proctitis mean index (symptom index: toxicity grade x days, summed) (radiation enteritis [3]; 2250 mg twice daily from 5 days prior to radiotherapy until 2 weeks after, vs. 77 in placebo (p=0.04), higher index = worse): 35
- nausea/vomiting seen (radiation enteritis [3]; 2250 mg twice daily, 1 on placebo): 2 patients
- patients experiencing grade 4 diarrhea (radiation enteritis [3]; 2250 mg twice daily, 2 placebo patients did): No patient
- fatigue index (radiation enteritis [3]; 2250 mg twice daily, placebo averaged 49): 20
- average weight change (radiation enteritis [3]; 2250 mg twice daily, placebo lost greater than 3 pounds): gained weight
- all toxicities except nausea/vomiting (radiation enteritis [3]; [5]): appreciably lower
- dysuria (radiation enteritis [3]; [5]): appreciably lower

Structure (SMILES): Nc1ccc(O)c(C(=O)O)c1 [mesalamine, 5-aminosalicylic acid]
- outcome in clinical trials for radiation enteritis (radiation enteritis [4]): failure

Structure (SMILES): O=C(O)c1cc(/N=N/c2ccc(O)c(C(=O)O)c2)ccc1O [osalazine]
- outcome in clinical trials for radiation enteritis (radiation enteritis [4]): failure
